Source: patent publication US10196386B2, “Compounds having muscarinic receptor antagonist and beta2 adrenergic receptor agonist activity” (priority 2016, dated 2019)

Legend:
[1] = biological target: T1, Human M3 receptor (Homo sapiens, UniProt P20309); assay: biochemical; format: binding; details: read-out: M3 Range
T1 construct: purchased Perkin Elmer

[2] = biological target: T2, Human β2 adrenoceptor (Homo sapiens, UniProt P07550); assay: β2 adrenoceptor radioligand binding assay
T2 construct: purchased Perkin Elmer
Protocol: β2 Adrenoceptor Radioligand Binding Assay
Human β2 adrenoceptor membranes (7.5 ug/well) from Perkin Elmer were incubated with 0.3 nM 125-I Cyanopindolol with or without test compounds, or a saturating concentration of s-propranolol (2 μM) for the determination of non-specific binding. The assay was carried out in 96-well polypropylene plates in a volume of 200 ul. The assay buffer used was 25 mM HEPES, 0.5% BSA (w/v), 1 mM EDTA, 0.02% ascorbic acid (v/v), (pH 7.4). The final assay concentration of DMSO was 0.5% (v/v). The plates were sealed and incubated for 1 h at room temperature on an orbital shaker (slow speed). Membranes were harvested onto 96-well unifilter GF/C filter plates pre-treated with 0.5% polyethyleneimine (v/v), using a filter manifold, washed six times with 200 ul of wash buffer containing 10 mM HEPES and 500 mM NaCl. The plates were dried before addition of 50 μl of microscint-0, sealed then read in a Trilux Microbeta scintillation counter. IC50 values are determined from competition curves using a non-linear curve fitting program. Ki values were calculated from IC50 values by the Cheng and Prusoff equation.

T2 sequence (P07550 whole entry): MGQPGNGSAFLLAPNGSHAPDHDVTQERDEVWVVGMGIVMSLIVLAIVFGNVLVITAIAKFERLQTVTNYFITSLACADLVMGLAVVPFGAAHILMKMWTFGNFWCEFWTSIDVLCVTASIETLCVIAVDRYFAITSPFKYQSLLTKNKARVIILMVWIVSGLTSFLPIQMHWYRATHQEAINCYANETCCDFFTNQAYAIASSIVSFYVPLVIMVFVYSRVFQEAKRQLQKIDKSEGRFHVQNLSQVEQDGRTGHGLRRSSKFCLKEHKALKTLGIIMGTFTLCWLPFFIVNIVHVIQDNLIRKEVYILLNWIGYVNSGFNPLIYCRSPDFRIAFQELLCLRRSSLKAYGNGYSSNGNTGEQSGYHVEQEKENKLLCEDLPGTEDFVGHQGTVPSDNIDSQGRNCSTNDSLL
T1 sequence (P20309 whole entry): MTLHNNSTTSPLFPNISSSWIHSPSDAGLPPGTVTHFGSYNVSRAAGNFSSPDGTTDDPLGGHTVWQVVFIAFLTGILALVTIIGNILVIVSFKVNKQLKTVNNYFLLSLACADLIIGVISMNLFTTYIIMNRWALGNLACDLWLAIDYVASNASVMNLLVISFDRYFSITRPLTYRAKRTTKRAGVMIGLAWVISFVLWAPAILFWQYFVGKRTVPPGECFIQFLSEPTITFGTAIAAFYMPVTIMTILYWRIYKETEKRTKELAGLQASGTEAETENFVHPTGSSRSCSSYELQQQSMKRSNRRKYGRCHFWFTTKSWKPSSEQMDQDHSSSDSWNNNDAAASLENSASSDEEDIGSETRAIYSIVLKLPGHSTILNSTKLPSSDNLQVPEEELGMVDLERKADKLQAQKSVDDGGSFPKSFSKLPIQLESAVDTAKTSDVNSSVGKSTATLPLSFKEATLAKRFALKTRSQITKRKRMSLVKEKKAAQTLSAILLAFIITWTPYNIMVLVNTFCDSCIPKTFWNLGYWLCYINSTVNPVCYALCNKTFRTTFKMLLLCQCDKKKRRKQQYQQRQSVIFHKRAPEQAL

SMILES | IC50 [1] [nM] | IC50 [2] [nM]
O=C(NCc1ccc(-c2cccc([C@](O)(C(=O)OCC3CCN(Cc4ccccc4)CC3)c3ccccc3)c2)s1)c1cccc(CNC[C@H](O)c2ccc(O)c3[nH]c(=O)ccc23)c1 [Compound 1N, (1-Benzylpiperidin-4-yl)methyl (S)-2-hydroxy-2-(3-(5-((3-((((R)-2-hydroxy-2-(8-hydroxy-2-oxo-1,2-dihydroquinolin-5-yl)ethyl)amino)methyl)-benzamido)methyl)thiophen-2-yl)phenyl)-2-phenylacetate] | 0.3 to 3 | 0.3 to 3
O=C(c1ccc(CNC[C@H](O)c2ccc(O)c3[nH]c(=O)ccc23)cc1)N1CCC=C(c2cccc([C@](O)(C(=O)OCC3CCN(Cc4ccccc4)CC3)c3ccccc3)c2)C1 [Compound 3I, (1-Benzylpiperidin-4-yl)methyl (S)-2-hydroxy-2-(3-(1-(4-((((R)-2-hydroxy-2-(8-hydroxy-2-oxo-1,2-dihydroquinolin-5-yl)ethyl)amino)methyl)benzoyl)-1,2,5,6-tetrahydropyridin-3-yl)phenyl)-2-phenylacetate] | 0.3 to 3 | 0.3 to 3
O=C(c1ccc(CNC[C@H](O)c2ccc(O)c3[nH]c(=O)ccc23)cc1)N1CCc2sc(-c3cccc([C@](O)(C(=O)OCC4CCN(Cc5ccccc5)CC4)c4ccccc4)c3)cc2C1 [Compound 5C, (1-Benzylpiperidin-4-yl)methyl (S)-2-hydroxy-2-(3-(5-(4-((((R)-2-hydroxy-2-(8-hydroxy-2-oxo-1,2-dihydroquinolin-5-yl)ethyl)amino)methyl)benzoyl)-4,5,6,7-tetrahydrothieno[3,2-c]pyridin-2-yl)phenyl)-2-phenylacetate] | 0.3 to 3 | < 0.3
O=C(c1ccc(CCNC[C@H](O)c2ccc(O)c3[nH]c(=O)ccc23)cc1)N1CC=C(c2cccc([C@](O)(C(=O)OCC3CCN(Cc4ccccc4)CC3)c3ccccc3)c2)CC1 [Compound 3, (1-Benzylpiperidin-4-yl)methyl (S)-2-hydroxy-2-(3-(1-(4-(2-(((R)-2-hydroxy-2-(8-hydroxy-2-oxo-1,2-dihydroquinolin-5-yl)ethyl)amino)ethyl)benzoyl)-1,2,3,6-tetrahydropyridin-4-yl)phenyl)-2-phenylacetate] | < 0.3 | < 0.3
COc1cc(C(=O)NCc2ccc(-c3ccc([C@](O)(C(=O)OCC4CCN(Cc5ccccc5)CC4)c4ccccc4)cc3)s2)ccc1CNC[C@H](O)c1ccc(O)c2[nH]c(=O)ccc12 [Compound 15A, (1-benzylpiperidin-4-yl)methyl (S)-2-hydroxy-2-(4-(5-((4-((((R)-2-hydroxy-2-(8-hydroxy-2-oxo-1,2-dihydroquinolin-5-yl)ethyl)amino)methyl)-3-methoxybenzamido)methyl)thiophen-2-yl)phenyl)-2-phenylacetate] | 0.3 to 3 | < 0.3
O=C(NCc1ccc(-c2cccc([C@](O)(C(=O)OCC3CCN(Cc4ccccc4)CC3)c3ccccc3)c2)s1)c1ccc(CNC[C@H](O)c2ccc(O)c3[nH]c(=O)ccc23)cc1 [Compound 1A, (1-Benzylpiperidin-4-yl)methyl (S)-2-hydroxy-2-(3-(5-((4-((((R)-2-hydroxy-2-(8-hydroxy-2-oxo-1,2-dihydroquinolin-5-yl)ethyl)amino)methyl)benzamido)-methyl)thiophen-2-yl)phenyl)-2-phenylacetate] | 0.3 to 3 | < 0.3
O=C(NCc1ccc(-c2cccc([C@](O)(C(=O)OCC3CCN(Cc4ccccc4)CC3)c3ccccc3)c2)s1)c1ccc(CNC[C@H](O)c2ccc(O)c3[nH]c(=O)ccc23)cc1Cl [Compound 1, (1-Benzylpiperidin-4-yl)methyl (S)-2-(3-(5-((2-chloro-4-((((R)-2-hydroxy-2-(8-hydroxy-2-oxo-1,2-dihydroquinolin-5-yl)ethyl)amino)methyl)benzamido-)methyl)thiophen-2-yl)phenyl)-2-hydroxy-2-phenylacetate] | 0.3 to 3 | < 0.3
O=C(NCC(=O)N1CC=C(c2cccc([C@](O)(C(=O)OCC3CCN(Cc4ccccc4)CC3)c3ccccc3)c2)CC1)c1ccc(CNC[C@H](O)c2ccc(O)c3[nH]c(=O)ccc23)cc1 [Compound 8D, (1-Benzylpiperidin-4-yl)methyl (S)-2-hydroxy-2-(3-(1-((4-((((R)-2-hydroxy-2-(8-hydroxy-2-oxo-1,2-dihydroquinolin-5-yl)ethyl)amino)methyl)-benzoyl)glycyl)-1,2,3,6-tetrahydropyridin-4-yl)phenyl)-2-phenylacetate] | 0.3 to 3 | < 0.3
O=C(NCc1csc(-c2cccc([C@](O)(C(=O)OCC3CCN(Cc4ccccc4)CC3)c3ccccc3)c2)c1)c1ccc(CNC[C@H](O)c2ccc(O)c3[nH]c(=O)ccc23)cc1 [Compound 5A, (1-Benzylpiperidin-4-yl)methyl (S)-2-hydroxy-2-(3-(4-((4-((((R)-2-hydroxy-2-(8-hydroxy-2-oxo-1,2-dihydroquinolin-5-yl)ethyl)amino)methyl)-benzamido)methyl)thiophen-2-yl)phenyl)-2-phenylacetate] | 0.3 to 3 | < 0.3
O=C(NCc1ccc(-c2cccc([C@](O)(C(=O)OCC3CCN(Cc4ccccc4)CC3)c3ccccc3)c2)s1)c1ccc(CNC[C@H](O)c2ccc(O)c3[nH]c(=O)ccc23)cc1F [Compound 1G, (1-Benzylpiperidin-4-yl)methyl (S)-2-(3-(5-((2-fluoro-4-((((R)-2-hydroxy-2-(8-hydroxy-2-oxo-1,2-dihydroquinolin-5-yl)ethyl)amino)methyl)-benzamido)methyl)thiophen-2-yl)phenyl)-2-hydroxy-2-phenylacetate] | 0.3 to 3 | < 0.3
Cc1cc(C(=O)NCc2ccc(-c3cccc([C@](O)(C(=O)OCC4CCN(Cc5ccccc5)CC4)c4ccccc4)c3)s2)ccc1CNC[C@H](O)c1ccc(O)c2[nH]c(=O)ccc12 [Compound 1S, (1-Benzylpiperidin-4-yl)methyl (S)-2-hydroxy-2-(3-(5-((4-((((R)-2-hydroxy-2-(8-hydroxy-2-oxo-1,2-dihydroquinolin-5-yl)ethyl)amino)methyl)-3-methylbenzamido)methyl)thiophen-2-yl)phenyl)-2-phenylacetate] | 0.3 to 3 | < 0.3
COc1cc(C(=O)N2CC=C(c3cccc([C@](O)(C(=O)OCC4CCN(Cc5ccccc5)CC4)c4ccccc4)c3)C2)ccc1CNC[C@H](O)c1ccc(O)c2[nH]c(=O)ccc12 [Compound 3J, (1-Benzylpiperidin-4-yl)methyl (S)-2-hydroxy-2-(3-(1-(4-((((R)-2-hydroxy-2-(8-hydroxy-2-oxo-1,2-dihydroquinolin-5-yl)ethyl)amino)methyl)-3-methoxybenzoyl)-2,5-dihydro-1H-pyrrol-3-yl)phenyl)-2-phenylacetate] | < 0.3 | < 0.3
COc1cc(C(=O)N2CCC=C(c3cccc([C@](O)(C(=O)OCC4CCN(Cc5ccccc5)CC4)c4ccccc4)c3)C2)ccc1CNC[C@H](O)c1ccc(O)c2[nH]c(=O)ccc12 [Compound 3H, (1-Benzylpiperidin-4-yl)methyl (S)-2-hydroxy-2-(3-(1-(4-((((R)-2-hydroxy-2-(8-hydroxy-2-oxo-1,2-dihydroquinolin-5-yl)ethyl)amino)methyl)-3-methoxybenzoyl)-1,2,5,6-tetrahydropyridin-3-yl)phenyl)-2-phenylacetate] | 0.3 to 3 | < 0.3
O=C(c1ccnc(-c2cccc([C@](O)(C(=O)OCC3CCN(Cc4ccccc4)CC3)c3ccccc3)c2)c1)N1CCC(CNC[C@H](O)c2ccc(O)c3[nH]c(=O)ccc23)CC1 [Compound 6, (1-Benzylpiperidin-4-yl)methyl (S)-2-hydroxy-2-(3-(4-(4-((((R)-2-hydroxy-2-(8-hydroxy-2-oxo-1,2-dihydroquinolin-5-yl)ethyl)amino)methyl)piperidine-1-carbonyl)pyridin-2-yl)phenyl)-2-phenylacetate] | 0.3 to 3 | < 0.3
O=C(NCc1ccc(CCNC[C@H](O)c2ccc(O)c3[nH]c(=O)ccc23)cc1)c1ccc(-c2ccc([C@](O)(C(=O)OCC3CCN(Cc4ccccc4)CC3)c3ccccc3)cc2)s1 [Compound 16, (1-benzylpiperidin-4-yl)methyl (S)-2-hydroxy-2-(4-(5-((4-(2-(((R)-2-hydroxy-2-(8-hydroxy-2-oxo-1,2-dihydroquinolin-5-yl)ethyl)amino)ethyl)benzyl)-carbamoyl)thiophen-2-yl)phenyl)-2-phenylacetate×2 HCOOH] | > 3 | 0.3 to 3
O=C(Cc1ccc(CNC[C@H](O)c2ccc(O)c3[nH]c(=O)ccc23)cc1)NCc1ccc(-c2cccc([C@](O)(C(=O)OCC3CCN(Cc4ccccc4)CC3)c3ccccc3)c2)s1 [Compound 1P, (1-Benzylpiperidin-4-yl)methyl (S)-2-hydroxy-2-(3-(5-((2-(4-((((R)-2-hydroxy-2-(8-hydroxy-2-oxo-1,2-dihydroquinolin-5-yl)ethyl)amino)methyl)-phenyl)acetamido)methyl)thiophen-2-yl)phenyl)-2-phenylacetate] | 0.3 to 3 | 0.3 to 3
O=C(NCc1ccc(-c2cccc([C@](O)(C(=O)OCC3CCN(Cc4ccccc4)CC3)c3ccccc3)c2)s1)c1c(F)cc(CNC[C@H](O)c2ccc(O)c3[nH]c(=O)ccc23)cc1Cl [Compound 1W, (1-Benzylpiperidin-4-yl)methyl (S)-2-(3-(5-((2-chloro-6-fluoro-4-((((R)-2-hydroxy-2-(8-hydroxy-2-oxo-1,2-dihydroquinolin-5-yl)ethyl)amino)methyl)-benzamido)methyl)thiophen-2-yl)phenyl)-2-hydroxy-2-phenylacetate] | 0.3 to 3 | < 0.3
